# Values of other authors in patent US20190350224A1, “METHOD FOR IMPROVING MUSCLE FORCE OR PHYSICAL FUNCTION” (University of Washington, priority 2018, published 2019).
# Settings: against reactive oxygen species
smiles,measurement,value
"CC1=C(/C=C/C(C)=C/C=C/C(C)=C/C=C/C=C(C)/C=C/C=C(C)/C=C/C2=C(C)C(=O)C(O)CC2(C)C)C(C)(C)CC(O)C1=O (stereo not drawn) [astaxanthin, 3,3′-dihydroxy-β,β-carotene-4,4′-dione]",antioxidant action relative to n-carotene,about 40 times
